Measurements: patent publication US20090082326A1, “SOLUBLE DOSAGE FORMS CONTAINING CEPHEM DERIVATIVES SUITABLE FOR PARENTERAL ADMINISTRATION” (Forest Laboratories Holdings Limited, priority 2007, published 2009)
Converted amounts (≈) assume the structure as drawn. Where a name gives a salt, the structure may show the parent alone.

Experiments:
[1] = Part A: single-dose IM injection and IV infusion pharmacokinetic study in healthy human subjects; type: in vivo; conditions: for Mean AUC0-∞ / Mean Cmax / Mean Tmax: prodrug; for AUC(0-inf): AUC0-∞; for half-life: T1/2
Procedure: (§1) The pharmacokinetic parameters described herein include area under the plasma concentration-time curve (AUC0-t and AUC0-∞), maximum plasma concentration (Cmax), and time of maximum plasma concentration (Tmax). Terminal elimination half-life (T1/2) may also be provided. The time of maximum concentration, Tmax, is determined as the time corresponding to Cmax. Area under the plasma concentration-time curve up to the time corresponding to the last measurable concentration (AUC0-t) is calculated by numerical integration using the linear trapezoidal rule as follows:
(§2) This was a two-part randomized, single and multiple-dose study to determine pharmacokinetics of ceftaroline fosamil and its the active moiety, ceftaroline, administered parenterally (both intramuscular injection and intravenous injection).
(§3) Part A of the study was a single-dose open-label study. Part B of the study was a multiple-dose study.
Twenty four subjects (six subjects per treatment group) were randomized to one of four treatment groups (A-D): The following doses were administered using vials containing 668 mg ceftaroline fosamil (USAN, molecular formula C22H21N8O8PS4.C2H4O2.H2O, molecular weight 762.75).
(§4) The duration of the study for Treatment Groups E and F was 11 days (Days-1 through 10). Ceftaroline dosing solutions for IM injection were prepared using sterile water for injection.
(§5) The pharmacokinetic parameters for ceftaroline fosamil and ceftaroline were determined using a standard assay. Blood for pharmacokinetic parameter analysis was collected from all subjects as follows: The first blood sample was collected at about 5 minutes (about 0.06 hours) after completion of the administration. Measurement was considered essentially zero prior to this point.
(§6) Part A: 5, 15, and 30 minutes and 1, 2, 4, 6, 8, 12, 18, 24, 36 and 48 hours after injection. In addition, blood were be collected from subjects receiving IV infusion immediately prior to drug injection on day 8 and at 20, 40, 60 (immediately before the end of the study-drug infusion), 65 and 75 minutes, and 1.5, 2, 3, 4, 6, 8, 12, 24, 36 and 48 hours after the start of the drug infusion on Day 8. Part B: Drug injection on Days 1 and 5, at 5, 15, and 30 minutes and 1, 2, 4, 6, […] after the first injection on Day 1, immediately prior to (within 15 minutes) of injection of morning dose on Day 4, at 12 hours post Day 4 morning dose (before evening dose) and at 5, and 30 minutes and 1, 2, 4, 6, 8, 12, 24, 36 and 48 hours after the last (morning) injection on Day 5.

[2] = Linear calculated pharmacokinetic parameters following single dose IM injection; type: in vivo, human; conditions: for Mean AUC0-∞ / Mean Cmax / Mean Tmax: prodrug, 228 mg/mL, calculated on linear assumptions; for AUC(0-inf) / Cmax / Tmax: human, in vivo, im
From the text: The AUC0-∞ and Cmax values increase or decrease proportionally with the dosage of ceftaroline fosamil. Thus, one skilled in the art with the benefit of this disclosure may readily determine pharmacokinetic parameters for any specific dosage of ceftaroline fosamil (or other prodrugs of ceftaroline) used in a particular dosage form of the invention. The pro-drug in the blood is converted rapidly to the active moiety ceftaroline.
Linear calculated pharmacokinetic parameters for ceftaroline following single dose IM injection of ceftaroline fosamil using vials containing 668 mg ceftaroline fosamil (USAN) at 228 mg/mL, defined per Table 23 are shown in Table 26.
Linear calculated pharmacokinetic parameters for ceftaroline fosamil (INN) following single dose IM injection of ceftaroline fosamil USAN (at concentration of ceftaroline fosamil (anhydrous, acetate free basis of 228 mg/mL, defined per Table 23) are shown in Table 27.

[3] = Part B: multiple-dose IM injection pharmacokinetic study in healthy human subjects; type: in vivo
Procedure: as §1, §2, §3
Eighteen subjects were randomized to one of two treatment groups The IM injection was be administered to the alternating side of the gluteus in each subject.
as §4, §5, §6

[4] = Aqueous solubility (stated in the description); type: physicochemical; conditions: water
[5] = tested on: aerobic and some anaerobic Gram-positive and Gram-negative bacteria; experiment: In vitro antimicrobial spectrum (MIC90); type: cell-based; conditions: read-out: minimum inhibitory concentration which inhibits 90% of the microbial strains in a given species (MIC90)
[6] = prodrug in plasma, Treatment A: 400 mg (INN) IM, 228 mg/mL
[7] = prodrug in plasma, Treatment B: 600 mg (INN) IM, 165 mg/mL
[8] = prodrug in plasma, Treatment C: 600 mg (INN) IM, Day 1, 228 mg/mL
[9] = prodrug in plasma, Treatment C: 600 mg (INN) IV infusion over 60 mins, Day 8
[10] = prodrug in plasma, Treatment D: 1000 mg (INN) IM, 228 mg/mL
[11] = single dose IM ceftaroline fosamil (USAN) 446 mg (≡400 mg INN), 228 mg/mL
[12] = single dose IM ceftaroline fosamil (USAN) 668 mg (≡600 mg INN), 228 mg/mL
[13] = single dose IM ceftaroline fosamil (USAN) 1114 mg (≡1000 mg INN), 228 mg/mL
[14] = single dose IM ceftaroline fosamil (USAN) 223 mg (≡200 mg INN)
[15] = single dose IM ceftaroline fosamil (USAN) 557 mg (≡500 mg INN)
[16] = single dose IM ceftaroline fosamil (USAN) 891 mg (≡800 mg INN)
[17] = single dose IM ceftaroline fosamil (USAN) 1337 mg (≡1200 mg INN)
[18] = single dose IM ceftaroline fosamil (USAN) 2005 mg (≡1800 mg INN)
[19] = prodrug in plasma, Treatment E: 600 mg (INN) IM q12h, Day 5, 228 mg/mL
[20] = prodrug in plasma, Treatment E: 600 mg (INN) IM, Day 1, 228 mg/mL
[21] = human, in vivo, im, 600 mg, AUC0-t

## CCO/N=C(\C(=O)N[C@@H]1C(=O)N2C(C(=O)[O-])=C(Sc3nc(-c4cc[n+](C)cc4)cs3)CS[C@H]12)c1nsc(NP(=O)(O)O)n1 [Ceftaroline Fosamil (INN), 4-[2-[[(6R,7R)-2-carboxy-7-[[2(Z)-ethoxyimino-[5-(phosphonoamino)-1,2,4-thiadiazol-3-yl]acetyl]amino]-8-oxo-5-thia-1-azabicyclo[4.2.0]oct-2-en-3-yl]thio-4-thiazolyl]-1-methyl-, inner salt]
[1]; 600 mg (INN) IM solution at 165 mg/mL vs IV
  more bioavailable than an IV solution of the same strength: over 50%
[1]; [6]
  AUC0-t: 1950 ± 401 ng·h/mL
  AUC0-∞: 2144 ± 421 ng·h/mL
  Cmax: 1113 ± 418 ng/mL
  T1/2: 1.21 ± 0.49 h
  Tmax: 0.29 h
[1]; [7]
  AUC0-t: 4846 ± 975 ng·h/mL
  AUC0-∞: 5118 ± 985 ng·h/mL
  Cmax: 2722 ± 557 ng/mL
  T1/2: 1.06 ± 0.33 h
  Tmax: 0.75 h
[1]; [8]
  AUC0-t: 3060 ± 475 ng·h/mL
  AUC0-∞: 3242 ± 486 ng·h/mL
  Cmax: 1492 ± 275 ng/mL
  T1/2: 1.57 ± 0.41 h
  Tmax: 0.50 h
[1]; [9]
  AUC0-t: 2734 ± 340 ng·h/mL
  AUC0-∞: 2744 ± 344 ng·h/mL
  Cmax: 3549 ± 465 ng/mL
  T1/2: 0.07 ± 0.03 h
  Tmax: 0.67 h
[1]; [10]
  AUC0-t: 5791 ± 2795 ng·h/mL
  AUC0-∞: 6229 ± 2829 ng·h/mL
  Cmax: 2239 ± 657 ng/mL
  T1/2: 1.87 ± 0.90 h
  Tmax: 0.38 h
[1]; [11]
  Mean AUC0-∞: 2144 ng·h/mL
  Mean Cmax: 1113 ng/mL
  Mean Tmax: 0.29 h
[1]; [12]
  Mean AUC0-∞: 3242 ng·h/mL
  Mean Cmax: 1492 ng/mL
  Mean Tmax: 0.5 h
[1]; [13]
  Mean AUC0-∞: 6229 ng·h/mL
  Mean Cmax: 2238 ng/mL
  Mean Tmax: 0.5 h
[2]; [14]
  Mean AUC0-∞: 1162 ng·h/mL
  Mean Cmax: 484 ng/mL
  Mean Tmax: 0.3 h
[2]; [15]
  Mean AUC0-∞: 2905 ng·h/mL
  Mean Cmax: 1210 ng/mL
  Mean Tmax: 0.5 h
[2]; [16]
  Mean AUC0-∞: 4648 ng·h/mL
  Mean Cmax: 1936 ng/mL
  Mean Tmax: 0.5 h
[2]; [17]
  Mean AUC0-∞: 6972 ng·h/mL
  Mean Cmax: 2904 ng/mL
  Mean Tmax: 0.5 h
[2]; [18]
  Mean AUC0-∞: 10458 ng·h/mL
  Mean Cmax: 4356 ng/mL
  Mean Tmax: 0.5 h
[3]; [19]
  AUC0-t: 4067 ± 782 ng·h/mL
  Cmax: 2223 ± 497 ng/mL
  T1/2: 1.11 ± 0.35 h
  Tmax: 0.50 h
[3]; [20]
  AUC0-t: 3096 ± 850 ng·h/mL
  Cmax: 1575 ± 507 ng/mL
  T1/2: 1.17 ± 0.52 h
  Tmax: 0.50 h

## CCO/N=C(\C(=O)N[C@@H]1C(=O)N2C(C(=O)[O-])=C(Sc3nc(-c4cc[n+](C)cc4)cs3)CS[C@H]12)c1nsc(N)n1 [Ceftaroline, ceftaroline]
[4]
  solubility: 2000 to 3000 µg/mL (≈ 3.31 to 4.96 mM)
[1]; human, in vivo
  AUC greater at 165 mg/mL than at 228 mg/mL: ~56%
  Bioavailability (absolute): 107 ± 7.1%
  Cmax greater at 165 mg/mL than at 228 mg/mL: approximately 72%
[1]; human, in vivo, Bioavailability (absolute)
  bioavailability: ~100%
[1]; human, in vivo, im, 400 mg
  Cmax: 6971 ± 1616 ng/mL
  Tmax: 1.5 (1.0-2.0) h
  AUC(0-inf): 35600 ± 6130 ng·h/mL
  half-life: 2.36 ± 0.22 h
[1]; human, in vivo, im, 400 mg, AUC0-t
  AUC0-t: 35300 ± 6160 ng·h/mL
[1]; human, in vivo, im, 600 mg
  AUC0-t: 73439 ± 12080 ng·h/mL
  AUC0-∞: 73826 ± 12031 ng·h/mL
  T1/2: 2.27 ± 0.16 h
  Tmax: 2.0 (1.2-2.0) h
  AUC(0-inf): 48100 ± 3850 ng·h/mL
  half-life: 2.55 ± 0.49 h
[1]; [21]
  AUC0-t: 47500 ± 4010 ng·h/mL
[1]; human, in vivo, im, 600 mg, Tmax
  Tmax: 2 h
[1]; human, in vivo, im, 1000 mg
  Cmax: 15997 ± 3739 ng/mL
  AUC(0-inf): 110000 ± 31300 ng·h/mL
  half-life: 2.68 ± 0.31 h
[1]; human, in vivo, im, 1000 mg, AUC0-t
  AUC0-t: 110000 ± 31300 ng·h/mL
[1]; human, in vivo, im, 1000 mg, Tmax
  Tmax: 2 h
[1]; human, in vivo, im, Mean Tmax
  Tmax: 2 h
[1]; human, in vivo, im, Tmax following IM injection
  Tmax: 1 to 2 h
[1]; human, in vivo, iv
  Tmax: 1.0 (1.0-1.0) h
  half-life: 2.13 ± 0.31 h
[1]; human, in vivo, iv, Tmax following IV infusion
  Tmax: ~1 h
[2]; 223 mg
  AUC(0-inf): 17800 ng·h/mL
  Cmax: 3490 ng/mL
  Tmax: 1.5 h
[2]; 557 mg
  AUC(0-inf): 43200 ng·h/mL
  Cmax: 7900 ng/mL
  Tmax: 2 h
[2]; 891 mg
  AUC(0-inf): 81800 ng·h/mL
  Cmax: 12600 ng/mL
  Tmax: 2 h
[2]; 1337 mg
  AUC(0-inf): 133000 ng·h/mL
  Cmax: 18800 ng/mL
  Tmax: 2 h
[2]; 2005 mg
  AUC(0-inf): 211000 ng·h/mL
  Cmax: 28100 ng/mL
  Tmax: 2 h
[3]; human, in vivo, im, 600 mg
  AUC0-t: 65407 ± 11807 ng·h/mL
  T1/2: 2.51 ± 0.45 h
[3]; [21]
  AUC0-t: 55300 ± 11100 ng·h/mL
[3]; human, in vivo, im, 600 mg, T1/2
  half-life: 2.54 ± 0.63 h
[5]
  MIC90: ≤ 2000 µg/mL
